Experiments:
recombinant USP1 protein = biological target: T1, recombinant USP1 protein (Homo sapiens, UniProt O94782, DEL125-138/DEL229-408/DEL608-737); test: Binding affinity to recombinant USP1 protein by differential scanning fluorimetry; conditions: compound 100 µM; 0.03 mg/mL USP1 (Δ1-66, Δ125-138, Δ229-408, Δ608-737); Tm with compound minus Tm with DMSO; read-out: ΔTm (°C)
T1 sequence (O94782 with tags, fused parts or gaps DEL125-138/DEL229-408/DEL608-737): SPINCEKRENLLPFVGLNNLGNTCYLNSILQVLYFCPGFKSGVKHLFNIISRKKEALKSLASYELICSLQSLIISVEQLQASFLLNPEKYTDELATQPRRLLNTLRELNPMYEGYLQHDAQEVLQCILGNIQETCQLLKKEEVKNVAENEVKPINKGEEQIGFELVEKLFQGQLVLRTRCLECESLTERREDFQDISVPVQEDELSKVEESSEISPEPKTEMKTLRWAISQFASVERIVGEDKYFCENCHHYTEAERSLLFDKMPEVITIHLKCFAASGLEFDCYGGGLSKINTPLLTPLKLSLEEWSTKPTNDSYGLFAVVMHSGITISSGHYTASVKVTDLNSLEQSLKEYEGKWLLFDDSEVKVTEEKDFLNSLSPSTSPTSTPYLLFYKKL
In short: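 USP1 (Δ1-66, Δ125-138, Δ229-408, Δ608-737) at 0.03 mg/mL with dye in 50 mM Tris-HCl pH 8.0, 150 mM NaCl, 2% glycerol, 1 mM DTT; compounds at 100 µM final. Tm read on real-time PCR instrument; ΔTm = Tm with compound minus Tm with DMSO.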

UWB1.289 cells = test: Cell proliferation inhibitory activity in BRCA1/2-mutant or HRD-positive cells (Cell Titer-Glo); assay type: cell-based; conditions: UWB1289; UWB1.289 cells, 144 hours after compound treatment, Cell Titer-Glo, 1.5 nM to 10 µM; read-out: GI50 UWB1.289 BRCA1 mut
In short: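 UWB1.289 cells (1,000/well) in 50% MEBM/50% RPMI1640 exposed to […], final 1.5 nM to 10 µM, for 144 h at 37 °C. Viable cells measured by CellTiter-Glo luminescence; GI50 calculated.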

Structure (SMILES)	ΔTm at 100 µM (recombinant USP1 protein) [°C]	GI50 (UWB1.289 cells) [nM]
COc1ncnc(C2CC2)c1-c1ncc2cc(C(=O)N3CCOC4(CCC4)C3)n(Cc3ccc(-c4nc(C(F)(F)F)cn4C(C)C)cc3)c2n1 [Example 56, (2-(4-cyclopropyl-6-methoxypyrimid in-5-yl)-7-(4-(1-isopropyl-4-(trifluoromethyl)-1H-imidazol-2-yl)benzyl)-7H-pyrrolo[2,3-d]pyrimidin-6-yl) (5-oxa-8-azaspiro[3.5]nonan-8-yl)methanone]	> 5	100 to 500
COc1ncnc(C2CC2)c1-c1ncc2cc(C(=O)NC3CCN(CC(C)(C)F)CC3)n(Cc3ccc(-c4nc(C(F)(F)F)cn4C(C)C)cc3)c2n1 [Example 126, 2-(4-cyclopropyl-6-methoxypyrimidin-5-yl)-N-(1-(2-fluoro-2-methylpropyl)piperidin-4-yl)-7-(4-(1-isopropyl-4-(trifluoromethyl)-1H-imidazol-2-yl)benzyl)-7H-pyrrolo[2,3-d]pyrimidine-6-carboxamide]	> 5	< 100
COc1ncnc(C2CC2)c1-c1ncc2cc(C(=O)N3CC[C@H](N(C)C)C3)n(Cc3ccc(-c4nc(C(F)(F)F)cn4C(C)C)cc3)c2n1 [Example 50, (S)-(2-(4-cyclopropyl-6-methoxypyrimidin-5-yl)-7-(4-(1-isopropyl-4-(trifluoromethyl)-1H-imidazol-2-yl)benzyl)-7H-pyrrolo[2,3-d]pyrimidin-6-yl) (3-(dimethylamino)pyrrolidin-1-yl)methanone]	> 5	100 to 500
COc1ncnc(C2CC2)c1-c1ncc2cc(C(=O)N(C)C)n(Cc3ccc(-c4nc(C(F)(F)F)cn4C(C)C)cc3)c2n1 [Example 5, 2-(4-cyclopropyl-6-methoxypyrimidin-5-yl)-7-(4-(1-isopropyl-4-(trifluoromethyl)-1H-imidazol-2-yl)benzyl)-N,N-dimethyl-7H-pyrrolo[2,3-d]pyrimidine-6-carboxamide]	> 5	< 100
COc1ncnc(C2CC2)c1-c1ncc2cc(C(=O)NC(C)C)n(Cc3ccc(-c4nc(C(F)(F)F)cn4C(C)C)cc3)c2n1 [Example 48, 2-(4-cyclopropyl-6-methoxypyrimidin-5-yl)-N-isopropyl-7-(4-(1-isopropyl-4-(trifluoromethyl)-1H-imidazol-2-yl)benzyl)-7H-pyrrolo[2,3-d]pyrimidine-6-carboxamide]	> 5	< 100
COc1ncnc(C2CC2)c1-c1ncc2cc(C(=O)NCC#N)n(Cc3ccc(-c4nc(C(F)(F)F)cn4C(C)C)cc3)c2n1 [Example 22, N-(cyanomethyl) - 2-(4-cyclopropyl-6-methoxypyrimidin-5-yl)-7-(4-(1-isopropyl-4-(trifluoromethyl)-1H-imidazol-2-yl)benzyl)-7H-pyrrolo[2,3-d]pyrimidine-6-carboxamide]	> 5	< 100
CCCNC(=O)c1cc2cnc(-c3c(OC)ncnc3C3CC3)nc2n1Cc1ccc(-c2nc(C(F)(F)F)cn2C(C)C)cc1 [Example 37, 2-(4-cyclopropyl-6-methoxypyrimidin-5-yl)-7-(4-(1-isopropyl-4-(trifluoromethyl)-1H-imidazol-2-yl)benzyl)-N-propyl-7H-pyrrolo[2,3-d]pyrimidine-6-carboxamide]	> 5	< 100
CCN(CC)CCNC(=O)c1cc2cnc(-c3c(OC)ncnc3C3CC3)nc2n1Cc1ccc(-c2nc(C(F)(F)F)cn2C(C)C)cc1 [Example 52, 2-(4-cyclopropyl-6-methoxypyrimidin-5-yl)-N-(2-(diethylamino)ethyl)-7-(4-(1-isopropyl-4-(trifluoromethyl)-1H-imidazol-2-yl)benzyl)-7H-pyrrolo[2,3-d]pyrimidine-6-carboxamide]	> 5	100 to 500
CNC(=O)c1cc2cnc(-c3c(OC4CC4)ncnc3C3CC3)nc2n1Cc1ccc(-c2nc(C(F)(F)F)cn2C(C)C)cc1 [Example 130, 2-(4-cyclopropoxy-6-cyclopropylpyrimidin-5-yl)-7-(4-(1-isopropyl-4-(trifluoromethyl)-1H-imidazol-2-yl)benzyl)-N-methyl-7H-pyrrolo[2,3-d]pyrimidine-6-carboxamide]	> 5	< 100
COc1ncnc(C2CC2)c1-c1ncc2cc(C(=O)NC3(C)COC3)n(Cc3ccc(-c4nc(C(F)(F)F)cn4C(C)C)cc3)c2n1 [Example 104, 2-(4-cyclopropyl-6-methoxypyrimidin-5-yl)-7-(4-(1-isopropyl-4-(trifluoromethyl)-1H-imidazol-2-yl)benzyl)-N-(3-methyloxetan-3-yl)-7H-pyrrolo[2,3-d]pyrimidine-6-carboxamide]	> 5	< 100
CCn1cc(C(F)(F)F)nc1-c1ccc(Cn2c(C(=O)NC)cc3cnc(-c4c(OC)ncnc4C4CC4)nc32)cc1 [Example 68, 2-(4-cyclopropyl-6-methoxypyrimidin-5-yl)-7-(4-(1-ethyl-4-(trifluoromethyl)-1H-imidazol-2-yl)benzyl)-N-methyl-7H-pyrrolo[2,3-d]pyrimidine-6-carboxamide]	> 5	< 100
COc1ncnc(C2CC2)c1-c1ncc2cc(C(=O)N3CC(N)C3)n(Cc3ccc(-c4nc(C(F)(F)F)cn4C(C)C)cc3)c2n1 [Example 99, (3-aminoazetidin-1-yl)(2-(4-cyclopropyl-6-methoxypyrimidin-5-yl)-7-(4-(1-isopropyl-4-(trifluoromethyl)-1H-imidazol-2-yl)benzyl)-7H-pyrrolo[2,3-d]pyrimidin-6-yl)methanone]	> 5	< 100
COc1ncnc(C2CC2)c1-c1ncc2cc(C(=O)NCCC(F)(F)F)n(Cc3ccc(-c4nc(C(F)(F)F)cn4C(C)C)cc3)c2n1 [Example 34, 2-(4-cyclopropyl-6-methoxypyrimidin-5-yl)-7-(4-(1-isopropyl-4-(trifluoromethyl)-1H-imidazol-2-yl)benzyl)-N-(3,3,3-trifluoropropyl)-7H-pyrrolo[2,3-d]pyrimidine-6-carboxamide]	> 5	100 to 500

More lines, main results first:

ΔTm at 100 µM (recombinant USP1 protein) [°C]	Structure (SMILES)	GI50 (UWB1.289 cells) [nM]
> 5	COc1ncnc(C2CC2)c1-c1ncc2cc(C(=O)NC3CCN(CC4(F)CC4)CC3)n(Cc3ccc(-c4nc(C(F)(F)F)cn4C(C)C)cc3)c2n1 [Example 133, 2-(4-cyclopropyl-6-methoxypyrimidin-5-yl)-N-(1-((1-fluorocyclopropyl)methyl)piperidin-4-yl)-7-(4-(1-isopropyl-4-(trifluoromethyl)-1H-imidazol-2-yl)benzyl)-7H-pyrrolo[2,3-d]pyrimidine-6-carboxamide]	< 100
> 5	COc1ncnc(C2CC2)c1-c1ncc2cc(C(=O)N[C@H](C)CO)n(Cc3ccc(-c4nc(C(F)(F)F)cn4C)cc3)c2n1 [Example 151, (R) -2-(4-cyclopropyl-6-methoxypyrimidin-5-yl)-N-(1-hydroxypropan-2-yl)-7-(4-(1-methyl-4-(trifluoromethyl)-1H-imidazol-2-yl)benzyl)-7H-pyrrolo[2,3-d]pyrimidine-6-carboxamide]	< 100
> 5	COc1ncnc(C2CC2)c1-c1ncc2cc(C(=O)NCC(C)(C)O)n(Cc3ccc(-c4nc(C(F)(F)F)cn4C)cc3)c2n1 [Example 205, 2-(4-cyclopropyl-6-methoxypyrimidin-5-yl)-N-(2-hydroxy-2-methylpropyl)-7-(4-(1-methyl-4-(trifluoromethyl)-1H-imidazol-2-yl)benzyl)-7H-pyrrolo[2,3-d]pyrimidine-6-carboxamide]	< 100
> 5	COc1ncnc(C2CC2)c1-c1ncc2cc(C(=O)N[C@H]3CN(C)C[C@H]3F)n(Cc3ccc(-c4nc(C(F)(F)F)cn4C(C)C)cc3)c2n1 [Example 220, 2-(4-cyclopropyl-6-methoxypyrimidin-5-yl)-N-((3S,4R)-4-fluoro-1-methylpyrrolidin-3-yl)-7-(4-(1-isopropyl-4-(trifluoromethyl)-1H-imidazol-2-yl)benzyl)-7H-pyrrolo[2,3-d]pyrimidine-6-carboxamide]	< 100
> 5	COc1ncnc(C2CC2)c1-c1ncc2cc(C(=O)NC(C)(C)CO)n(Cc3ccc(-c4nc(C(F)(F)F)cn4C(C)C)cc3)c2n1 [Example 156, 2-(4-cyclopropyl-6-methoxypyrimidin-5-yl)-N-(1-hydroxy-2-methylpropan-2-yl)-7-(4-(1-isopropyl-4-(trifluoromethyl)-1H-imidazol-2-yl)benzyl)-7H-pyrrolo[2,3-d]pyrimidine-6-carboxamide]	< 100
> 5	CNC(=O)c1cc2cnc(-c3c(OC)ncnc3C3CC3)nc2n1Cc1ccc(-c2nc(C(F)(F)F)cn2[C@H]2CCN(C)C[C@@H]2F)cc1 [Example 189, 2-(4-cyclopropyl-6-methoxypyrimidin-5-yl)-7-(4-(1-((3S,4S)-3-fluoro-1-methylpiperidin-4-yl)-4-(trifluoromethyl)-1H-imidazol-2-yl)benzyl) -N-methyl-7H-pyrrolo [2,3-d]pyrimidine-6-carboxamide]	< 100

— patent EP4806898A1, “HETEROARYL DERIVATIVE COMPOUND AND USE THEREOF” (Voronoi Inc., priority 2023, dated 2025)
